Columns and labels:
WT embryos = assay: Rescue experiment, WT embryos; format: in vivo, zebrafish; settings: 20 μM, motion within 5 s after 1 s WL3
Method: For Trpa1b ohnolog and paralog rescue experiments, Trpa1b^−/− embryos were injected with ngn1:zTrpa1b-2A-mCherry (partial plasmid sequence in SEQ ID NO:5), ngn1:zTrpa1a-2A-mCherry, ngn1:hTRPA1-2A-EGFP or ngn1:mTRPA1-2A-mCherry at the 1-cell stage for mosaic Rohon-beard neuron expression. Embryos were screened at 2 dpf for fluorescent expression in Rohon-beard neurons, incubated with 20 μM TRPswitch-B for 1 hr and decapitated posterior to the eyes right before experiments. NA 0.25 5× objective and 1 s WL3 light illumination was used.
To test the potential cross activity of TRPswitch-B on the zebrafish ohnolog Trpa1a and on mammalian orthologs, zebrafish Trpa1a, mouse TRPA1 or human TRPA1 were transiently re-expressed in the Rohon-beard neurons of mutant Trpa1b^−/− zebrafish and performed light-induced motion response experiments in the presence of TRPswitch-B. Rescue experiments were performed in Trpa1b^−/− zebrafish with transient mosaic re-expression of zebrafish Trpa1b (zTrpa1b), zebrafish Trpa1a (zTrpa1a), mouse TRPA1 (mTRPA1) or human TRPA1 (hTRAP1) in Rohon-beard neurons. Embryos were pre-treated with 20 μM TRPswitch-B and decapitated right before light stimulation to eliminate the light response mediated by the retina (Table 5). […]

Trpa1b = assay: Heartbeat interruption in larvae expressing Trpa1b in cardiomyocytes; format: in vivo, zebrafish; settings: 20 μM
Method: Heartbeat interruption experiments were performed in vivo on 2 dpf Tg(cm/c2:Trpa1b-2A-EGFP) larvae in a Trpa1b^−/− background. Larvae were pretreated with 20 μM of TRPswitch-A or TRPswitch-B in E3 at a final concentration of 1% DMSO for 1 h in the dark at 28.5° C. before experimental manipulation. Immediately prior to the onset of experiments, E3 solution was replaced with 0.2 mg/mL tricaine (Sigma, A5040) in E3 for anesthetizing the larvae. Violet light (352-402 nm) and green light (500-600 nm) were used for E to Z and Z to E isomerization, respectively. Violet and green light excitation were achieved using a band pass filter FF01-377/50 and an et500lp long pass barrier filter, respectively, together with a t600plxxr dichroic mirror and a 300-Watt xenon bulb light source (Sutter Instrument). Experiments were performed using a NA 0.6 40× air objective at room temperature. The zebrafish heart in the whole field of view was illuminated with 1 s violet light followed by various lengths of green light as indicated. Ventricle width measurement was performed using the ImageJ ‘measure’ function on the widest outer ventricle width every 100 ms.

[1] = tested on: wild-type zebrafish larvae; assay: Behavioral assay: light-induced motion response of wild-type larvae; format: in vivo, Zebrafish (Danio rerio)
Method: A total of 1,000 compounds were selected from the ChemBridge Corp. catalog. Compounds were dissolved in DMSO at a stock concentration of 1 μg/μL (˜1.5 mM). The library was screened at a 1:100 dilution in E3 solution for a final concentration of ˜15 μM. Negative controls were treated with an equal volume of DMSO. Groups of 3 larvae at 3 days post fertilization (dpf) were distributed into the wells of 96-well clear bottom black microplates (07-200-567; Fisher Scientific) in 150 μL E3 before the addition of small molecules. Stock solutions of compounds were added directly to zebrafish in the wells of a 96 well plate (Corning 3631), mixed, and allowed to incubate for 1 h in the dark at 28.5° C. prior to behavioral evaluation in the behavioral assay. Ordering information: 1 (5533696; ChemBridge); 3 (5538408; ChemBridge).
Larvae in each of the wells were exposed to four 1 second flashes of light stimulus in the following order: 450-500 nm (WL1), 415-455 nm (WL2), 352-402 nm (WL3), white light (WL4), with a 5 second inter-stimulus interval. Digital video recording was performed for 5 seconds before the first light stimuli and continued throughout the stimulation sequence. Band pass filters (Semrock FF02-475/50, FF02-435/40, FF01-377/50) were used to restrict the excitation light to the indicated wavelengths. […] 290 frames of digital video were recorded per well at 10 FPS using an EMCCD camera (C9100; Hamamatsu) mounted on an inverted compound microscope (AxioObserver A1; Zeiss) with a NA 0.03 1.25× objective and a barrier with a 0.7 mm diameter opening to restrict light scattering to the sample. MetaMorph software (Molecular Devices) was used to control the execution of TTL signals and camera capture using the built-in stream acquisition with trigger function. Each video was saved for review. Light stimuli were generated with an ozone free 300-Watt xenon bulb housed in a Lambda LS illuminator (Sutter Instruments). A dichroic mirror (T510LPXRXT; Chroma) was used for appropriate excitation of samples and bright field acquisition. Schott longpass absorption glass (RG610; Chroma) was added in the transmitted light path to reduce unwanted excitation to the well and to provide sufficient light for video recording. All behavioral experiments were conducted at room temperature. […]
To analyze digital video recordings, custom MetaMorph software scripts were used to automatically threshold the video to identify the area of larvae in each frame. Threshold images of the frames after each light activation event were overlaid to calculate a new combined threshold area. The motion index was calculated as the percentage change between the threshold area in the frame right before light activation and the new combined threshold area. This motion index correlates with the overall amount of motion in the well.

Cc1nn(C)c(C)c1/N=N/c1ccc(NC(=O)c2cccs2)cc1NC(=O)c1cccs1 [Compound 9, (E)-N,N′-(4-((1,3,5-trimethyl-1H-pyrazol-4-yl)diazenyl)-1,3-phenylene)bis(thiophene-2-carboxamide)]
% response (WT embryos): 65%
ventricle heartbeat after 1 s violet light (Trpa1b; 1 h pre-incubation): could be stopped
ventricular rhythm after 1 s green light (Trpa1b; after violet light): re-stored
light-induced motion response (in vivo activity) ([1]; 3 dpf wild-type larvae, 1 s flashes WL1-WL4): comparable biological response to TRPswitch-A
effect of DABCO on light-induced motion response ([1]; DABCO, singlet oxygen quencher): no effect
